The target of one assay is HRAS (Homo sapiens, UniProt P01112). Description: SOS-catalyzed nucleotide exchange assay (Procedure A, TR-FRET), HRAS. Format: biochemical. As to conditions: read-out: HRAS GNE IC50. The source says: Procedure for SOS-Catalyzed Nucleotide Exchange Assay for KRAS-WT, G12C/D/V, G13D, HRAS, and NRAS (Procedure A)
Recombinant KRAS-G12C protein used in this assay has an additional triple mutation (C51S/C80L/C118S). Whereas KRAS-WT, G12D/V, G13D, HRAS and NRAS are in context of their WT protein sequence background. Specifically, the SOS-catalyzed nucleotide exchange assay utilizes a preformed TR-FRET complex containing a specific biotinylated RAS protein (KRAS-WT, G12C/V/D, G13D, HRAS, NRAS; described above) with Bodipy-GDP, and Terbium-streptavidin. Compounds are preincubated with this complex for 60 minutes. Subsequently, recombinant human SOS protein and unlabeled GTP are added to initiate the exchange reaction. Small molecule inhibitors stabilize the Bodipy-GDP complex whereas the untreated protein rapidly exchanges Bodipy-GDP for unlabeled GTP resulting in reduced TR-FRET signal.
To assemble the preformed TR-FRET complexes, each biotinylated RAS protein is diluted to 2 μM in an EDTA Buffer (20 mM HEPES pH 7.5, 50 mM sodium chloride, 10 mM EDTA, and 0.01% Tween) and incubated at room temperature for one hour. This mixture is then further diluted to 90 nM in an Assay Buffer (20 mM HEPES pH 7.5, 150 mM sodium chloride, 10 mM magnesium chloride, and 0.005% Tween) containing 15 nM of Terbium-Streptavidin (Invitrogen, catalog #PV3577) and 900 nM of Bodipy-GDP (Invitrogen, catalog #G22360) and incubated at room temperature for six hours. It should be noted that this preformed TR-FRET complex for each of the RAS protein were made ahead of time, aliquoted and stored at −80° C. until the day of the experiment.
Each test compound (10 mM stock in DMSO) is diluted in DMSO to make a final-10-point, 3-fold dilution and is acoustically dispensed into a 384-well assay plate (Corning, catalog #3820) using an Echo 550 (Labcyte). Each well of the assay plate receives 3 μL of a specific 3×RAS preformed TR-FRET complex and 3 μL of Assay Buffer and is incubated at room temperature for 60 minutes (preincubation time). Each well then receives 3 μL of 3×recombinant human SOS protein and GTP (Sigma, G8877) in Assay Buffer and is incubated at room temperature for 30 minutes (G13D), 60 minutes (KRAS WT/G12C/D, H/NRAS) or 90 minutes for G12V. The final reaction in each well of 9 μL consists of 3 mM GTP, specific Ras and SOS proteins in the following concentrations: KRAS-G12C/SOS=3 nM/40 nM, KRAS-WT and G12D/SOS=1 nM/40 nM, KRAS-G12V/SOS=1.25 nM/160 nM. KRAS-G13D/SOS=1.25 nM/0 nM, HRAS and NRAS=1.25 nM/40 nM.
The time-resolved fluorescence resonance energy transfer (TR-FRET) signal is measured on an Envision (PerkinElmer) plate reader: Excitation filter=340 nm; emission 1=495 nm; emission2=520 nm; dichroic mirror=D400/D505; delay time=[…]. The signal of each well is determined as the ratio of the emission at 520 nm to that at 495 nm. Percent effect of each well is determined after normalization to control wells containing DMSO (no effect) or a saturating concentration of inhibitor (max effect). The apparent effect as a function of compound concentration is fit to a four-parameter logistic equation.

A further assay has as its system SW620 cells. The experiment in a line: Cellular phospho-ERK assay, SW620 cells (homozygous KRAS-G12V). Format: cell-based. As to conditions: Homo sapiens, SW-620, 2 hours compound incubation, read-out: SW620 pERK IC50. An outline of the steps: (§1)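 Overnight-plated cells on collagen received test compound (up to 30 μM final, threefold steps, ten concentrations) for two hours. After lysis at room temperature, phosphorylated and total ERK were quantified together by Alpha SureFire, and IC50 is based on the phospho-to-total signal ratio.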

Another assay addresses KRAS-G13D (Homo sapiens, UniProt P01116, G13D). The experiment in a line: SOS-catalyzed nucleotide exchange assay (Procedure A, TR-FRET), KRAS-G13D. Format: biochemical. As to conditions: nucleotide exchange, Procedure A; read-out: KRAS G13D GNE IC50.
Another assay concerns AsPC-1 cells. Description: Cellular phospho-ERK assay, AsPC-1 cells (homozygous KRAS-G12D). Format: cell-based. To be noted: Homo sapiens, ASPC1, 2 h, 2 hours compound incubation, read-out: AsPC1 pERK IC50. An outline of the steps: as §1
A further assay addresses KRAS-G12D (Homo sapiens, UniProt P01116, G12D). Description: SOS-catalyzed nucleotide exchange assay (Procedure A, TR-FRET), KRAS-G12D. Format: biochemical. To be noted: nucleotide exchange, read-out: KRAS G12D GNE IC50. An outline of the steps: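 Signal ratio (520/495 nm, excitation 340 nm) reports Bodipy-GDP retention on biotinylated RAS after SOS-catalyzed exchange with 3 mM GTP. SOS was 40 nM, except 160 nM for G12V. Room-temperature exchange lasted 60 min (90 min for G12V), following a 60 min compound preincubation.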
(In general: In TR-FRET formats the signal depends on donor and acceptor labels being close together.)

A further assay concerns the target KRAS-G12V (Homo sapiens, UniProt P01116, G12V). The experiment in a line: SOS-catalyzed nucleotide exchange assay (Procedure A, TR-FRET), KRAS-G12V. Format: biochemical. As to conditions: nucleotide exchange, read-out: KRAS G12V GNE IC50. An outline of the steps: (§2)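 Compounds (10-point, 3-fold) were preincubated 60 min at room temperature with a biotinylated RAS/Bodipy-GDP/Tb-streptavidin TR-FRET complex. Exchange was started with human SOS plus 3 mM GTP. RAS/SOS: G12C 3/40 nM, WT 1/40 nM, NRAS 1.25/40 nM (60 min); G12V 1.25/160 nM (90 min). The 520/495 ratio was fit four-parameter.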

Another assay has as its target KRAS-WT (Homo sapiens, UniProt P01116). Description: SOS-catalyzed nucleotide exchange assay (Procedure A, TR-FRET), KRAS-WT. Format: biochemical. To be noted: nucleotide exchange, read-out: KRAS WT GNE IC50. Summed up:
as §2

The test system of the next assay is MKN-1 cells. Description: Cellular phospho-ERK assay, MKN-1 cells (amplified wild-type KRAS). Format: cell-based. To be noted: Homo sapiens, 2 hours compound incubation, read-out: MKN1 pERK IC50. An outline of the steps: as §1
In assay [1] the target is KRAS-G12C (C51S/C80L/C118S) (Homo sapiens, UniProt P01116, C118S/C51S/C80L/G12C). The experiment in a line: SOS-catalyzed nucleotide exchange assay (Procedure A, TR-FRET), KRAS-G12C. Format: biochemical. To be noted: nucleotide exchange, Procedure A; read-out: KRAS G12C GNE IC50. An outline of the steps: as §2
KRAS-G12C (C51S/C80L/C118S), sequence (P01116 with tags, fused parts or gaps isoform P01116-2 G12C/C51S/C80L/C118S): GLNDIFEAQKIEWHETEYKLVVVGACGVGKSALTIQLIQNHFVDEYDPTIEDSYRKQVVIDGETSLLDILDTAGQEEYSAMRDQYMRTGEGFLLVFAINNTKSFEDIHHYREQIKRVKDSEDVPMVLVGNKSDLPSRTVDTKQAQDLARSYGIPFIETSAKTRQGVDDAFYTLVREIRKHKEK

pIC50: −log10 of the molar value.

KRAS-G12V, sequence (P01116 with tags, fused parts or gaps isoform P01116-2 G12V): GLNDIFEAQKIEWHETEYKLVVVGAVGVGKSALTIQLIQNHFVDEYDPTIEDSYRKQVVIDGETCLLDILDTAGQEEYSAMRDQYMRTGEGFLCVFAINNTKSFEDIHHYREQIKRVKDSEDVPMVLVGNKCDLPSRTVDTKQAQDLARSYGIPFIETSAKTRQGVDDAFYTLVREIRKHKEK
KRAS-G13D, sequence (P01116 with tags, fused parts or gaps isoform P01116-2 G13D): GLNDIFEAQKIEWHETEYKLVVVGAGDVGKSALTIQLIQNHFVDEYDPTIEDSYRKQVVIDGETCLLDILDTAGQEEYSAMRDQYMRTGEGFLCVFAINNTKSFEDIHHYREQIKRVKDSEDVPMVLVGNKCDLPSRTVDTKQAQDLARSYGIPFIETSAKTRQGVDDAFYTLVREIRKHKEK
HRAS, sequence (P01112 with tags, fused parts or gaps): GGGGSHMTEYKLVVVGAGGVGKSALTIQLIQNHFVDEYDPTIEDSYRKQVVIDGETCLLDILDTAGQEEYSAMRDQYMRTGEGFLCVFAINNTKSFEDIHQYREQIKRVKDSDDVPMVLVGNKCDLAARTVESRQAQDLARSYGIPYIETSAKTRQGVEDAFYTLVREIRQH
KRAS-WT, sequence (P01116 with tags, fused parts or gaps isoform P01116-2): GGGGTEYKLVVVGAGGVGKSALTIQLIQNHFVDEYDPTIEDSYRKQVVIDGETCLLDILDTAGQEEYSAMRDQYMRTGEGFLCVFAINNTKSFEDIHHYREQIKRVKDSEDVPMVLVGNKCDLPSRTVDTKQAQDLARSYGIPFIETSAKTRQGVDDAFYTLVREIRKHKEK
KRAS-G12D, sequence (P01116 with tags, fused parts or gaps isoform P01116-2 G12D): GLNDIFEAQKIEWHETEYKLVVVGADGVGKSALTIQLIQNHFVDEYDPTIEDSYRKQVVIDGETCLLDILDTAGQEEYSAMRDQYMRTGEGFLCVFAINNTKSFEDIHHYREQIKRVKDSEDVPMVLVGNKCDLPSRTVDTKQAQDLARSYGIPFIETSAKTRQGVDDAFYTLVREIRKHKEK

The pIC50 is −log10 of the IC50, conventionally taken in molar units. Consider `C[C@@]1(O)COCCN(c2nc(OC[C@]3(CN4CC5(CCOC5)C4)CC3(F)F)nc3sc4c(-c5c(C6(F)CC6)c(Cl)cc6[nH]ncc56)nccc4c23)C1` [Ex-245, (6S)-4-(2-(((R)-1-((6-oxa-2-azaspiro[3.4]octan-2-yl)methyl)-2,2-difluorocyclopropyl)methoxy)-8-(6-chloro-5-(1-fluorocyclopropyl)-1H-indazol-4-yl)pyrido[4′,3′:4,5]thieno[2,3-d)pyrimidin-4-yl)-6-methyl-1,4-oxazepan-6-ol], for which the negative-log IC50 (pIC50) at HRAS is 5.89; in the assay on SW620 cells, 7.32; on KRAS-G13D it was 7.80; in the assay with AsPC-1 cells it was 7.15; on KRAS-G12D, 8.38; at KRAS-G12V, 7.89. Moreover, the pIC50 on KRAS-WT is 7.73; in the assay on MKN-1 cells, 7.36; in assay [1], 7.72.

For `C[C@@]1(O)COCCN(c2nc(OC[C@]3(CN4CC5(CCCOC5)C4)CC3(F)F)nc3sc4c(-c5c(C6(F)CC6)c(Cl)cc6[nH]ncc56)nccc4c23)C1` [Ex-249, (6S)-4-(2-(((R)-1-((6-oxa-2-azaspiro[3.5]nonan-2-yl)methyl)-2,2-difluorocyclopropyl)methoxy)-8-(6-chloro-5-(1-fluorocyclopropyl)-1H-indazol-4-yl)pyrido[4′,3′:4,5]thieno[2,3-d]pyrimidin-4-yl)-6-methyl-1,4-oxazepan-6-ol], the negative-log IC50 (pIC50) on HRAS is 6.03; in the assay with SW620 cells it was 7.29; on KRAS-G13D it was 7.67; in the assay on AsPC-1 cells, 7.13; on KRAS-G12D, 8.57; on KRAS-G12V, 7.81. Also, the negative logarithm of the IC50 (pIC50) on KRAS-WT is 7.69; with MKN-1 cells, 7.44; in assay [1] it was 7.94.

Turning to `CCc1c(F)ccc2cc3[nH]ncc3c(-c3nccc4c3sc3nc(OC[C@@]56CCCN5C[C@H](F)C6)nc(N5CCOC[C@@](C)(O)C5)c34)c12` [Ex-167, (6S)-4-(8-(5-ethyl-6-fluoro-1H-benzo[f]indazol-4-yl)-2-(((2R,7aS)-2-fluorotetrahydro-1H-pyrrolizin-7a(5H)-yl)methoxy)pyrido[4′,3′:4,5]thieno[2,3-d]pyrimidin-4-yl)-6-methyl-1,4-oxazepan-6-ol], the pIC50 on HRAS was 4.99; in the assay with SW620 cells it was 8.09; on KRAS-G13D, 8.00; with AsPC-1 cells, 7.63; at KRAS-G12D, 8.48; on KRAS-G12V, 8.32. The pIC50 was 8.30 on KRAS-WT, 7.79 with MKN-1 cells and 7.63 in [1].

For `CN1CCC[C@@]2(COc3nc(N4CCOC[C@@](C)(O)C4)c4c(n3)sc3c(-c5c(C6(F)CC6)c(Cl)cc6[nH]ncc56)nccc34)CCC[C@@H]12` [Ex-268, (6S)-4-(8-(6-chloro-5-(1-fluorocyclopropyl)-1H-indazol-4-yl)-2-(((4aS,7aR)-1-methyloctahydro-4aH-cyclopenta[b]pyridin-4a-yl)methoxy)pyri-do[4′,3′:4,5]thi-eno[2,3-d]pyrimidin-4-yl)-6-methyl-1,4-oxazepan-6-ol], the pIC50 on HRAS is 5.38; in the assay on SW620 cells it was 7.56; on KRAS-G13D, 7.99; in the assay with AsPC-1 cells, 7.25; on KRAS-G12D, 8.61; at KRAS-G12V, 8.24. The pIC50 at KRAS-WT is 8.24; in the assay with MKN-1 cells, 7.51; in assay [1], 7.06.

Regarding `C[C@@]1(O)COCCN(c2nc(OC[C@@]34CCCN3C/C(=C/F)C4)nc3sc4c(-c5c(C6CC6)c(Cl)cc6[nH]ncc56)nccc4c23)C1` [Ex-209, (6S)-4-(8-(6-chloro-5-cyclopropyl-1H-indazol-4-yl)-2-(((S,E)-2-(fluoro-methylene)tetra-hydro-1H-pyrrol-izin-7a(5H)-yl)-methoxy)pyrido [4′,3′:4,5]thieno [2,3-d]pyrimidin-4-yl)-6-methyl-1,4-oxazepan-6-ol], the negative-log IC50 (pIC50) on HRAS was 5.03; with SW620 cells it was 7.30; at KRAS-G13D, 7.87; with AsPC-1 cells it was 7.28; on KRAS-G12D, 8.54; at KRAS-G12V it was 7.92. Besides, the results for the pIC50 (on KRAS-WT; in the assay with MKN-1 cells; in [1]) were 8.02, 6.80 and 7.32, respectively.

With `CCC1CCc2cc3[nH]ncc3c(-c3nccc4c3sc3nc(OC[C@@]56CCCN5C[C@H](F)C6)nc(N5CCOC[C@@](C)(O)C5)c34)c21` (stereo partly drawn) [Ex-169, (6S)-4-(8-(5-ethyl-1,5,6,7-tetrahydro-cyclopenta[f]indazol-4-yl)-2-(((2R,7aS)-2-fluorotetrahydro-1H-pyrrolizin-7a(5H)-yl)methoxy)pyrido [4′,3′:4,5]thieno[2,3-d]pyrimidin-4-yl)-6-methyl-1,4-oxaze-pan-6-ol], the pIC50 on HRAS was 5.01; in the assay on SW620 cells, 7.59; at KRAS-G13D, 8.15; in the assay on AsPC-1 cells it was 7.51; at KRAS-G12D, 8.65; on KRAS-G12V, 7.87. In addition, the negative logarithm of the IC50 (pIC50) at KRAS-WT was 8.11; with MKN-1 cells, 7.67; in assay [1], 7.81.

Consider `C=C1CN2CCC[C@@]2(COc2nc(N3CCOC[C@@](C)(O)C3)c3c(n2)sc2c(-c4c(C5CC5)c(Cl)cc5[nH]ncc45)nccc23)C1` [Ex-224, (6S)-4-(8-(6-chloro-5-cyclopropyl-1H-indazol-4-yl)-2-(((S)-2-methylene-tetrahydro-1H-pyrrolizin-7a(5H)-yl)methoxy)pyrido [4′,3′:4,5]thieno[2,3-d]pyrimidin-4-yl)-6-methyl-1,4-oxaze-pan-6-ol], for which the pIC50 at HRAS is 5.48; in the assay on SW620 cells it was 8.01; at KRAS-G13D it was 8.26; with AsPC-1 cells, 7.71; on KRAS-G12D, 8.57; at KRAS-G12V, 7.92. Moreover, the pIC50 on KRAS-WT was 8.27; in the assay with MKN-1 cells it was 7.63; in assay [1] it was 7.72.
